For orientation: EC50 means the midpoint of the concentration-response curve.

The target of one assay is T1, rat CB2 receptor (rCB2) (Rattus norvegicus, UniProt Q9QZN9).
T1 sequence (Q9QZN9 1-360): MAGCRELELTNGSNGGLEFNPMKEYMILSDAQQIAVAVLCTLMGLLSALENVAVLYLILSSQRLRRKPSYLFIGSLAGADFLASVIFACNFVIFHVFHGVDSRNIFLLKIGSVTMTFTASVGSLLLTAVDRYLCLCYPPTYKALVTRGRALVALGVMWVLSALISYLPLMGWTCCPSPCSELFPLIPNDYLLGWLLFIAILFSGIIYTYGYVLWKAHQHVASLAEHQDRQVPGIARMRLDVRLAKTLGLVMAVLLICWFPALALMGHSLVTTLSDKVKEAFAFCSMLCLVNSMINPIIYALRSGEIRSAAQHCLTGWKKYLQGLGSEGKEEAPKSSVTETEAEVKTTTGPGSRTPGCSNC
In words: cell-based. It counts as cell-based. To be noted: for +/− RCB2: agonist or inverse agonist at rCB2. In a few lines:
(§1)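 First, cells in IBMX-containing HEPES-buffered HBSS are raised to elevated cAMP with 2-8 μM NKH-477 for 30 min. Data are normalised to the forskolin and forskolin + 1 μM CP55,940 controls.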

In assay [1] the target is human CB1 receptor (hCB1) (Homo sapiens, UniProt P21554). As to the kind of experiment: cell-based. It is filed as cell-based. To be noted: for +/− HCB1: agonist or inverse agonist at hCB1. Put shortly: as §1
Setting [2] is: groups >100 nM-10 μM and >10 μM, cAMP, CHO-K1 hCB1, read-out: EC50 HCB1.

SMILES strings stand for the structures. Read-outs that look alike come from different tables or passages of the source. Some results are limits rather than exact numbers.

human CB1 receptor (hCB1), sequence (P21554 whole entry): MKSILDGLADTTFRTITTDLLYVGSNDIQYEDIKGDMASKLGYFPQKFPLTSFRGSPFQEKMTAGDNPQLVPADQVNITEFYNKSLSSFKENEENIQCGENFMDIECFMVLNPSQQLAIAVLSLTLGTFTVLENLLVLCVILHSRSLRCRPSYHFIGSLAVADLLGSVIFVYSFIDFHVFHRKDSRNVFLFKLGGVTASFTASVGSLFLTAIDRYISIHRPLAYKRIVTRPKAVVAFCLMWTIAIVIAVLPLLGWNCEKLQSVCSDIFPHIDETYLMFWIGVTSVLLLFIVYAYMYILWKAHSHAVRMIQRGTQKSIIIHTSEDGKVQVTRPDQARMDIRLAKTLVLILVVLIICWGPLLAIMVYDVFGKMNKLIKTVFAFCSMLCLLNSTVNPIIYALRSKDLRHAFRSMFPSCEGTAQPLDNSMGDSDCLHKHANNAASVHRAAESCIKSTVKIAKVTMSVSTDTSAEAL

On to `CCS(=O)(=O)N1CCn2c(-c3ccccc3)nc(C(=O)NCC3CCOCC3)c2C1` [Compound 117, 7-(ethylsulfonyl)-3-phenyl-N-((tetrahydro-2H-pyran-4-yl)methyl)-5,6,7,8-tetrahydroimidazo[1,5-a]pyrazine-1-carboxamide], for which the “+/− RCB2” value at rat CB2 receptor (rCB2) is reported as “−”. In addition, the EC50 in assay [1] (setting [2]) was more than 10000 nM.
As to `C=C(c1ccccc1)c1nc(C(=O)N[C@H](C(=O)NC)C(C)(C)C)c2n1CCCN(C)C2` [Compound 455, (S)-N-(3,3-dimethyl-1-(methylamino)-1-oxobutan-2-yl)-8-methyl-3-(1-phenylvinyl)-6,7,8,9-tetrahydro-5H-imidazo[1,5-a][1,4]diazepine-1-carboxamide], the “+/− RCB2” value at rat CB2 receptor (rCB2) is on record as “+”. Besides, the 50% effective concentration (EC50) in assay [1] was more than 10000 nM.
Taken in the same sequence, the figures for `CC(C)(C)CC(=O)c1nc(-c2ccccc2)n2c1CNCC2` [Compound 291, 3,3-dimethyl-1-(3-phenyl-5,6,7,8-tetrahydroimidazo[1,5-a]pyrazin-1-yl)butan-1-one 2,2,2-trifluoroacetate] were “−” and more than 10000 nM.
Taken in the same sequence, the figures for `CNC(=O)[C@@H](NC(=O)c1nc(-c2cccs2)n2c1CNCC2)C(C)(C)C` [Compound 16, (S)-N-(3,3-dimethyl-1-(methylamino)-1-oxobutan-2-yl)-3-(thiophen-2-yl)-5,6,7,8-tetrahydroimidazo[1,5-a]pyrazine-1-carboxamide] were “+” and more than 10000 nM.
For the compound `CNC(=O)[C@@H](NC(=O)c1nc(-c2ccc(S(=O)(=O)N(C)C)cc2)n2c1CN(C)CCC2)C(C)(C)C` [Compound 410, (S)-N-(3,3-dimethyl-1-(methylamino)-1-oxobutan-2-yl)-3-(4-(N,N-dimethylsulfamoyl)phenyl)-8-methyl-6,7,8,9-tetrahydro-5H-imidazo[1,5-a][1,4]diazepine-1-carboxamide], the concentration for a half-maximal effect (EC50) (on rat CB2 receptor (rCB2); in assay [1]) was more than 10000 nM throughout.
On to `CCc1nc(C(=O)N[C@H](C(=O)NC)C(C)(C)C)c2n1CCN(C)C2` [Compound 310, (S)-N-(3,3-dimethyl-1-(methylamino)-1-oxobutan-2-yl)-3-ethyl-7-methyl-5,6,7,8-tetrahydroimidazo[1,5-a]pyrazine-1-carboxamide], for which the “+/− RCB2” value on rat CB2 receptor (rCB2) is reported as “−”. In assay [1], the 50% effective concentration (EC50) is more than 10000 nM.
Taken in the same sequence, the figures for `CNC(=O)[C@@H](NC(=O)c1nc(C=C(C)C)n2c1CN(C)CCC2)C(C)(C)C` [Compound 377, (S)-N-(3,3-dimethyl-1-(methylamino)-1-oxobutan-2-yl)-8-methyl-3-(2-methylprop-1-enyl)-6,7,8,9-tetrahydro-5H-imidazo[1,5-a][1,4]diazepine-1-carboxamide] were “+” and more than 10000 nM.
Regarding `CNC(=O)[C@@H](NC(=O)c1nc(-c2ccc(C(=O)N(C)C)cc2)n2c1CN(C)CCC2)C(C)(C)C` [Compound 394, (S)-N-(3,3-dimethyl-1-(methylamino)-1-oxobutan-2-yl)-3-(4-(dimethylcarbamoyl)phenyl)-8-methyl-6,7,8,9-tetrahydro-5H-imidazo[1,5-a][1,4]diazepine-1-carboxamide], the “+/− RCB2” value on rat CB2 receptor (rCB2) is “−”. This compound also displayed an EC50 in assay [1] of more than 10000 nM.
With `Cc1ccc(-c2nc(C(=O)N[C@H](c3nc(C)no3)C(C)(C)C)c3n2CCCNC3)c(F)c1` [Compound 520, (S)-N-(2,2-dimethyl-1-(3-methyl-1,2,4-oxadiazol-5-yl)propyl)-3-(2-fluoro-4-methylphenyl)-6,7,8,9-tetrahydro-5H-imidazo[1,5-a][1,4]diazepine-1-carboxamide], the “+/− RCB2” value at rat CB2 receptor (rCB2) is reported as “−”. The compound further registered a half-maximal effective concentration (EC50) in assay [1] of more than 10000 nM.
With `CNC(=O)c1cccc(-c2nc(C(=O)N[C@H](C(=O)NC)C(C)(C)C)c3n2CCCN(C)C3)c1` [Compound 391, (S)-N-(3,3-dimethyl-1-(methylamino)-1-oxobutan-2-yl)-8-methyl-3-(3-(methylcarbamoyl)phenyl)-6,7,8,9-tetrahydro-5H-imidazo[1,5-a][1,4]diazepine-1-carboxamide], the EC50 (on rat CB2 receptor (rCB2); in assay [1]) was more than 10000 nM throughout.
Consider `CNC(=O)[C@H](CC(C)C)NC(=O)c1nc(-c2cc(Cl)ccc2F)n2c1CN(C)CCC2` [Compound 536, (S)-3-(5-chloro-2-fluorophenyl)-8-methyl-N-(4-methyl-1-(methylamino)-1-oxopentan-2-yl)-6,7,8,9-tetrahydro-5H-imidazo[1,5-a][1,4]diazepine-1-carboxamide], for which the “+/− RCB2” value on rat CB2 receptor (rCB2) is “+”. In assay [1], the EC50 is more than 10000 nM.
On the same counts, the results for `CNC(=O)[C@@H](NC(=O)c1nc(-c2ccc(Cl)cc2F)n2c1CN(C(=O)OC(C)(C)C)CCC2)C(C)(C)C` [Compound 313] are “−” and more than 10000 nM.
`CNC(=O)[C@@H](NC(=O)c1nc(C=C(C)C)n2c1CN(C)CC2)C(C)(C)C` [Compound 257, (S)-N-(3,3-dimethyl-1-(methylamino)-1-oxobutan-2-yl)-7-methyl-3-(2-methylprop-1-enyl)-5,6,7,8-tetrahydroimidazo[1,5-a]pyrazine-1-carboxamide]: the “+/− RCB2” value at rat CB2 receptor (rCB2) is listed as “+”. The compound also registered an EC50 in assay [1] of more than 10000 nM.
As to `CNC(=O)[C@H](CC(C)C)NC(=O)c1nc(-c2cc(F)c(F)cc2F)n2c1CN(C)CCC2` [Compound 538], the “+/− RCB2” value at rat CB2 receptor (rCB2) is given as “+”. For the same compound, the “+/− HCB1” value in assay [1] is listed as “+”.
Take `CNC(=O)[C@@H](NC(=O)c1nc(C2CCCCC2)n2c1CN(C)CC2)C(C)(C)C` [Compound 305, (S)-3-cyclohexyl-N-(3,3-dimethyl-1-(methylamino)-1-oxobutan-2-yl)-7-methyl-5,6,7,8-tetrahydroimidazo[1,5-a]pyrazine-1-carboxamide]: the “+/− RCB2” value at rat CB2 receptor (rCB2) is reported as “+”. In addition, the concentration for a half-maximal effect (EC50) in assay [1] was more than 10000 nM.
`CNC(=O)[C@@H](NC(=O)c1nc(C2=CCC(C(C)(C)C)CC2)n2c1CN(C)CC2)C(C)(C)C` (stereo partly drawn) [Compound 271, 3-(4-tert-butylcyclohex-1-enyl)-N-((S)-3,3-dimethyl-1-(methylamino)-1-oxobutan-2-yl)-7-methyl-5,6,7,8-tetrahydroimidazo[1,5-a]pyrazine-1-carboxamide]: the “+/− RCB2” value on rat CB2 receptor (rCB2) is reported as “+”. Also, the “+/− HCB1” value in assay [1] is “+”.
With `CN1CCn2c(-c3ccc(Cl)cc3F)nc(C(=O)N3CCC(n4cc(-c5ccccc5)[nH]c4=O)CC3)c2C1` [Compound 227, 1-(1-(3-(4-chloro-2-fluorophenyl)-7-methyl-5,6,7,8-tetrahydroimidazo[1,5-a]pyrazine-1-carbonyl)piperidin-4-yl)-4-phenyl-1H-imidazol-2(3H)-one], the “+/− RCB2” value on rat CB2 receptor (rCB2) is “−”. For the same compound, in assay [1] (setting [2]), the EC50 is more than 10000 nM.
Take `CNC(=O)[C@@H](NC(=O)c1nc(/C=C/CN2CCCCC2)n2c1CN(C)CC2)C(C)(C)C` [Compound 287, (S,E)-N-(3,3-dimethyl-1-(methylamino)-1-oxobutan-2-yl)-7-methyl-3-(3-(piperidin-1-yl)prop-1-enyl)-5,6,7,8-tetrahydroimidazo[1,5-a]pyrazine-1-carboxamide]: the “+/− RCB2” value at rat CB2 receptor (rCB2) is listed as “+”. In addition, the EC50 in assay [1] was more than 10000 nM.
With `CNC(=O)[C@H](CC(C)C)NC(=O)c1nc(-c2ccc(F)c(Cl)c2)n2c1CN(C)CCC2` [Compound 537, (S)-3-(3-chloro-4-fluorophenyl)-8-methyl-N-(4-methyl-1-(methylamino)-1-oxopentan-2-yl)-6,7,8,9-tetrahydro-5H-imidazo[1,5-a][1,4]diazepine-1-carboxamide], the “+/− RCB2” value at rat CB2 receptor (rCB2) is recorded as “+”. For the same compound, the EC50 in assay [1] was more than 10000 nM.
On the same counts, the results for `CC12CCC(C1)C(C)(C)C2NC(=O)c1nc(-c2ccccc2)n2c1CN(C(=O)C1CC1)CC2` (stereo not drawn) [Compound 119, 7-(cyclopropanecarbonyl)-3-phenyl-N-(1,3,3-trimethyl-bicyclo [2.2.1]heptan-2-yl)-5,6,7,8-tetrahydroimidazo[1,5-a]pyrazine-1-carboxamide] are “−” and more than 10000 nM.
Turning to `CNC(=O)[C@@H](NC(=O)c1nc(-c2cnn(C)c2)n2c1CNCC2)C(C)(C)C` [Compound 17, (S)-N-(3,3-dimethyl-1-(methylamino)-1-oxobutan-2-yl)-3-(1-methyl-1H-pyrazol-4-yl)-5,6,7,8-tetrahydroimidazo[1,5-a]pyrazine-1-carboxamide], the concentration giving a half-maximal response (EC50) at rat CB2 receptor (rCB2) (groups >100 nM-10 μM and >10 μM, cAMP, CHO-K1 rCB2, read-out: EC50 RCB2) was more than 10000 nM; in assay [1] (setting [2]) it was more than 10000 nM.
On to `CNC(=O)[C@@H](NC(=O)c1nc(-c2ccccc2)n2c1CN(C(=O)Nc1ccccc1)CC2)C(C)(C)C` [Compound 194, (S)-N1-(3,3-dimethyl-1-(methylamino)-1-oxobutan-2-yl)-N7,3-diphenyl-5,6-dihydroimidazo[1,5-a]pyrazine1,7-(8H)-dicarboxamide], for which the half-maximal effective concentration (EC50) (on rat CB2 receptor (rCB2); in assay [1]) was more than 10000 nM in each case.
`CNC(=O)[C@@H](NC(=O)c1nc(-c2ccccc2)n2c1CN(C)CC2)c1ccccc1` [Compound 207, (S)-7-methyl-N-(2-(methylamino)-2-oxo-1-phenylethyl)-3-phenyl-5,6,7,8-tetrahydroimidazo[1,5-a]pyrazine-1-carboxamide]: the “+/− RCB2” value at rat CB2 receptor (rCB2) is on record as “+”. In assay [1], this compound registered an EC50 of more than 10000 nM.
On to `CNC(=O)[C@@H](NC(=O)c1nc(-c2cc(F)c(F)cc2F)n2c1CN(C)CCC2)C1CCCCC1` [Compound 541, (S)-N-(1-cyclohexyl-2-(methylamino)-2-oxoethyl)-8-methyl-3-(2,4,5-trifluorophenyl)-6,7,8,9-tetrahydro-5H-imidazo[1,5-a][1,4]diazepine-1-carboxamide], for which the “+/− RCB2” value on rat CB2 receptor (rCB2) was “+”. For the same compound, the “+/− HCB1” value in assay [1] is reported as “+”.

For the origin of these results see US7517874B2 (priority 2007, dated 2009).
